According to patent publication US7084270B2, “Pyrimido compounds having antiproliferative activity” (Hoffman-La Roche Inc., priority 2002, dated 2006):
Where two headings read alike, the source gives them in different places.

Experiments:
EGFR = EGFR (Homo sapiens, UniProt P00533); experiment: EGFR kinase HTRF assay; format: biochemical; details: enzyme inhibition, 0.5 μM ATP
Description: (§1) To determine inhibition of KDR, FGFR, EGFR, and PDGFR activity, kinase assays were conducted using an HTRF (Homogeneous Time Resolved Fluorescence) assay. This assay is described in A. J. Kolb et. al., Drug Discovery Today, 1998, 3(7), p 333.
(§2) Kinase activity assays were performed in 96-well polypropylene plates (Falcon) with a total volume of 90 μL in each well. Each well contained 1 μM KDR substrate (Biotin-EEEEYFELVAKKKK), 1 nM activated KDR, and a test compound with one of 8 assay concentrations ranging from 100 μM to […] (1:5 serial dilution). The kinase activity assay was done in the presence of 100 mM HEPES, pH 7.4, 1 mM DTT, 0.1 mM Na2VO4, 25 mM MgCl2, 50 mM NaCl (from KDR stock solution), 1% DMSO (from compound), 0.3 mM ATP (at Km concentration) and 0.02% BSA. The reaction was incubated at 37° C. for 30 minutes. To stop the KDR reaction, 72 μL of reaction mixture was transferred into a STOP plate containing 18 μL of revelation buffer (20 mM EDTA, 50 mM HEPES, pH 7.4, 0.02% BSA, 10 nM Eu-labelled anti-pY antibody (final conc. 2 nM), and 100 nM streptavidin (final conc. 20 nM)). After mixing, 35 μL of solution was transferred into duplicate wells of a 384-well black plate (Costar), and read at 615/665 nm on a Wallac Victor 5 reader.
The rest of the assay was performed in the same manner as the KDR assay.
(§3) Compound IC50 values were determined from duplicate sets of data, and calculated by using Excel and fitting data to equation Y=[(a−b)/{1+(X/c)^d]+b, where a and b are enzyme activity in the presence of no test inhibitor compound and an infinite amount of inhibitor test compound, respectively, c is the IC50 and d is the hill constant of the compound response. The IC50 value is the concentration of test compound that reduces by 50% the enzyme activity under the test conditions described.

[1] = test system: Human umbilical vein endothelial cells (HUVEC), FGF-stimulated; experiment: FGF-stimulated HUVEC proliferation assay (BrdU); format: cell-based; details: BrdU labeling, FGF 5 ng per mL, 24 hour exposure, read-out: HUVEC/bFGFR IC50
Description: (§4) The antiproliferative activity of test compounds of this invention in cell-based assays was evaluated by BrdU assay using the BrdU kit (Roche Biochemicals 1-647-229). Human umbilical vein endothelial cells (Clonetics CC-2519) were cultured in EGM-2 (Clonetics CC-3162) medium and seeded at 10000 cells per well in a volume of 200 μL of EGM-2 (Clonetics CC-3162) media in a 96-well flat bottom plates (Costar 3595) overnight. After 24 hours of growth at 37° C. with 5% CO2, the incubation media was removed slowly by aspiration and the content of each well was washed with 300 μL pre-warmed EBM-2 (Clonetics CC-3156) containing 50 μg per mL of gentamycin and 50 ng per mL of amphotercin-B (Clonetics CC-4083). Subsequently, the remaining media was again aspirated and replaced with 160 μL per well of serum starvation media (EBM-2 supplemented with 1% heat inactivated FBS (Clonetics CC-4102), 50 μg per mL gentamycin and 50 ng per mL of amphotercin-B (Clonetics CC-4083), 10 units per mL of Wyeth-Ayerst heparin (NDC0641-0391-25), and 2 mM L-glutamine (GIBCO 25030-081). After serum starving the cells for 24 hours, 20 μL of test compound at 10× test concentration in serum starvation medium with 2.5% DMSO was added to the appropriate wells. The control wells contained 20 μL of serum starvation medium with 2.5% DMSO. Plates were returned to the incubator for 2 hours. After pre-incubating the cells with the test compounds for 2 hours, 20 μL of growth factors at 10×assay concentration diluted in serum starvation media, FGF at 50 ng per mL, or VEGF (R&D systems 293-VE) at 200 ng per mL were added. The final concentration of FGF in the assay was 5 ng per mL, and the final concentration of VEGF in the assays was 20 ng per mL. The growth factor free control wells had 20 μL per well of serum starvation media with the same amount of BSA as the wells with growth factors. The plates were returned to the incubator for an additional 22 hours.
(§5) After 24 hour exposure to the test compounds, the cells were labeled with BrdU (Roche Biochemicals 1-647-229), by adding 20 μL per well of BrdU labeling reagent that has been diluted (1:100) in serum starvation medium. The plates were then returned to the incubator for 4 hours. The labeling medium was removed by draining the medium onto paper towels. […] The plates were read at 450 nm with reference wavelength of 650 nm. The percent inhibition for each test compound was calculated by subtracting the absorbency of the blank (no cells) wells from all wells, then subtracting the division of the average absorbency of each test duplicate by the average of the controls from 1. […] The IC50 is determined from the linear regression of a plot of the logarithm of the concentration versus percent inhibition.

[2] = test system: Human umbilical vein endothelial cells (HUVEC), VEGF-stimulated; experiment: VEGF-stimulated HUVEC proliferation assay (BrdU); format: cell-based; details: BrdU labeling, VEGF 20 ng per mL, 24 hour exposure, read-out: HUVEC/VEFG IC50
Description: as §4, with “After pre-incubating the cells with the test compounds for 2 hours, 20 μL of growth factors at 10×assay concentration diluted in serum starvation media, FGF at 50 ng per mL, or VEGF (R&D systems 293-VE) at 200 ng per mL were added. The final concentration of FGF in the assay was 5 ng per mL, and the final concentration of VEGF in the assays was 20 ng per mL. The growth factor free control wells had 20 μL per well of serum starvation media with the same amount of BSA as the wells with growth factors. The plates were returned to the incubator for an additional 22 hours.” left out
as §5, with “medium.” for “medium. The plates were then returned to the incubator for 4 hours. The labeling medium was removed by draining the medium onto paper towels.”

KDR = biological target: T1, KDR (Homo sapiens, UniProt P35968); experiment: KDR kinase HTRF assay; format: biochemical; details: enzyme inhibition, 0.3 mM ATP
T1 construct: EEE-tag
T1 sequence (P35968 20-1356, species assumed): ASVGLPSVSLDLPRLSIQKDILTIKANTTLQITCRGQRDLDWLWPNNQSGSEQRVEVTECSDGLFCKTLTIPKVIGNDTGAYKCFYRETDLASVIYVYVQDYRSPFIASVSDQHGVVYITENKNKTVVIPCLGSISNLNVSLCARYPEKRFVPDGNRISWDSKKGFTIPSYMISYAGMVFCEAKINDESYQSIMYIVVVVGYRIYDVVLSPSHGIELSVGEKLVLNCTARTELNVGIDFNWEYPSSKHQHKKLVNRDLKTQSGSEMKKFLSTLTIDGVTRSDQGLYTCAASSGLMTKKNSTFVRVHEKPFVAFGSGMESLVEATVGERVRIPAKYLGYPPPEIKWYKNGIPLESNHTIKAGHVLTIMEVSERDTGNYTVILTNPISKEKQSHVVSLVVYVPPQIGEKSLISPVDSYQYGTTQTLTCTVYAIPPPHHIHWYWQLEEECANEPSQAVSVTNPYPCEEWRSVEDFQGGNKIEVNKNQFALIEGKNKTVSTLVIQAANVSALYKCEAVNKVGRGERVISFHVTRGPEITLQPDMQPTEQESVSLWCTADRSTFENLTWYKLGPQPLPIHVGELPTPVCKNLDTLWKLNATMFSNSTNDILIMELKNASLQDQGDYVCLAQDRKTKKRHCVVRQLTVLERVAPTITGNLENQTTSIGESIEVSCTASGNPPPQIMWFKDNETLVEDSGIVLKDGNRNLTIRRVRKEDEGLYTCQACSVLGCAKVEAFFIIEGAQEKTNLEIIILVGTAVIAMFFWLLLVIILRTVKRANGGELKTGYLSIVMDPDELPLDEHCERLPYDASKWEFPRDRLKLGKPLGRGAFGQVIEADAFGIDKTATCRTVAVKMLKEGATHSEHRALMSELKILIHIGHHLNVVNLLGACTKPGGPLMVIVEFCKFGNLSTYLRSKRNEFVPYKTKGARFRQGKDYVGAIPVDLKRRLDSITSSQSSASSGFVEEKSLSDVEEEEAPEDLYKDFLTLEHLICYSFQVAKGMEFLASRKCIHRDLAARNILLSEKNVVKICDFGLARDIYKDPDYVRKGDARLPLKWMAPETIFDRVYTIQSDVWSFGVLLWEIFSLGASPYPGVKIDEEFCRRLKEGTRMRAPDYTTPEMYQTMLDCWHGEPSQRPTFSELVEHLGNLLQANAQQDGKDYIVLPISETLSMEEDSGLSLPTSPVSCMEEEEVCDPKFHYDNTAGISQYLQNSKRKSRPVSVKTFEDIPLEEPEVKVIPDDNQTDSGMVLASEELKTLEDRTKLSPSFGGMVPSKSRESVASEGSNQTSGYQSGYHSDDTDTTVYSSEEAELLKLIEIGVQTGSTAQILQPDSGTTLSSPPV
Description: as §1
Prior to kinase reaction, recombinant EEE-tagged KDR was activated in the presence of activation buffer (50 mM HEPES, pH 7.4, 1 mM DTT, 10% glycerol, 150 mM NaCl, 0.1 mM EDTA, 26 mM MgCl2, and 4 mM ATP). The enzyme was incubated at 4° C. for 1 hour.
as §2, §3

PDGFR = PDGFR kinase HTRF assay; format: biochemical; details: enzyme inhibition, 2.3 μM ATP
Description: as §1, §2
The PDGFR kinase activity assay was performed with 1 μM substrate (Biotin-EEEEYFELV), 1.0 nM PDGFR, test compounds, 100 mM HEPES, pH 7.4, 1 mM DTT, 5 mM MgCl2, 2 mM MnCl2, 1% DMSO, 2.3 μM ATP (Km for PDGFR), 0.1 mM Na2VO4, and 0.02% BSA. The rest of the assay was performed in the same manner as the KDR assay.
as §3

FGFR = biological target: T2, FGFR; experiment: FGFR kinase HTRF assay; format: biochemical; details: enzyme inhibition, 10 μM ATP
T2 construct: fused on or other part: GST tag
Description: as §1, §2
FGFR, EGFR, and PDGFR activity assays were carried out as described above for the KDR activity assay with the following differences. GST-tagged FGFR enzyme was activated at room temperature for 1 hour in the following activation buffer: 100 mM HEPES, pH 7.4, 50 mM NaCl, 20 mM MgCl2, and 4 mM ATP. […] The rest of the assay was performed in the same manner as KDR assay.
as §3

Chain of EGFR (P00533 25-1210, species assumed): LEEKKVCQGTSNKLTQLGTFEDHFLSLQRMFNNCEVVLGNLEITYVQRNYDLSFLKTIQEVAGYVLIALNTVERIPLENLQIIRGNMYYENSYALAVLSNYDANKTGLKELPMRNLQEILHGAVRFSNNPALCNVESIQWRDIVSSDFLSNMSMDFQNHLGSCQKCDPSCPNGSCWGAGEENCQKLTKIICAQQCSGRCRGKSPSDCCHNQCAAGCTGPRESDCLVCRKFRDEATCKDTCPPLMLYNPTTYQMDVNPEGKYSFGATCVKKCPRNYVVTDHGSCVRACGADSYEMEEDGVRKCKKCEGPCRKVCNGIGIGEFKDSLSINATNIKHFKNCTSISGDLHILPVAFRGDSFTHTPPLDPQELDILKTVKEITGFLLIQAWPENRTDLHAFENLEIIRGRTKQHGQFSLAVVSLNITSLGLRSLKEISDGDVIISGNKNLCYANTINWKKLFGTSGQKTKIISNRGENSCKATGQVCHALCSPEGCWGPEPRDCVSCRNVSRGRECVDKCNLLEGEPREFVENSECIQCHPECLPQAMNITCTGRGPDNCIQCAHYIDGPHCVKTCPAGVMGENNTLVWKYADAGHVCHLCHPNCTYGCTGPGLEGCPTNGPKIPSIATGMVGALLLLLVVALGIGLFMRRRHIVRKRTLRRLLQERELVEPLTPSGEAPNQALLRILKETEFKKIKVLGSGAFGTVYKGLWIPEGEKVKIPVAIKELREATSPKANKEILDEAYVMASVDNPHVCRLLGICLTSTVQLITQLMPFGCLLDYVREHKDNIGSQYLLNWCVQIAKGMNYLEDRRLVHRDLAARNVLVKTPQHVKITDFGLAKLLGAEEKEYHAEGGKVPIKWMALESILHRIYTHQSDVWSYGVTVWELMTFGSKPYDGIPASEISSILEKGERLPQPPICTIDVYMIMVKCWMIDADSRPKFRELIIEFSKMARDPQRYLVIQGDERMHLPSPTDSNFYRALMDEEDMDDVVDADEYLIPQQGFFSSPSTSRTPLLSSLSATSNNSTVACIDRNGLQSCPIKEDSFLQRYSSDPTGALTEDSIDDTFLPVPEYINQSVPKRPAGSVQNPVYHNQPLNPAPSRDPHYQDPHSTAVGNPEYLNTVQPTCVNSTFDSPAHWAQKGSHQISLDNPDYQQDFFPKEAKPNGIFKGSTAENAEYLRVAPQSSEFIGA

For `COc1ccc(N2Cc3cnc(Nc4ccccc4)nc3N(c3ccccc3)C2=O)cc1` [Example 1g, 3-(4-Methoxyphenyl)-1-phenyl-7-(phenylamino)-1,3,4-trihydropyrimidino[4,5-d]pyrimidin-2-one], the IC50 (EGFR) was 360 nM, the IC50 ([1]; Homo sapiens, HUVEC, 24 h) was 310 nM and the IC50 [2] was 120 nM. The IC50 (KDR) was 44 nM, the IC50 (PDGFR) was 130 nM and the IC50 (FGFR) was 190 nM.
With `COc1ccc(N2Cc3cnc(Nc4ccccc4)nc3N(c3ccccc3)C2=O)cc1.CS(=O)(=O)O` [Example 1h, 3-(4-Methoxyphenyl)-1-phenyl-7-(phenylamino)-1,3,4-trihydropyrimidino[4,5-d]pyrimidin-2-one methanesulfonate salt] the IC50 (EGFR) was 350 nM, the IC50 ([1]; methanesulfonate salt) was 430 nM and the IC50 (KDR) was 76 nM. It also gave an IC50 (PDGFR; methanesulfonate salt) of 150 nM, an IC50 (FGFR; methanesulfonate salt) of 170 nM and a melting point of 245 to 251 °C.
Work on `COc1ccc(N2Cc3cnc(N(C(=O)OCOC(=O)CN(C)C)c4ccccc4)nc3N(c3ccccc3)C2=O)cc1` [Example 5a] yielded a melting point of 172 °C.
Compound `COc1ccc(N2Cc3cnc(Nc4ccc(O)cc4)nc3N(c3ccccc3)C2=O)cc1` [Example 18, 7-[(4-Hydroxyphenyl)amino]-3-(4-methoxyphenyl)-1-phenyl-1,3,4-trihydropyrimidino[4,5-d]pyrimidin-2-one] has an IC50 (EGFR) of 130 nM, an IC50 ([1]; Homo sapiens, HUVEC, 24 h) of 150 nM and an IC50 [2] of 63 nM. It also gave an IC50 (KDR) of 29 nM, an IC50 (PDGFR) of 64 nM and an IC50 (FGFR) of 110 nM.
`COc1ccc(Nc2ncc3c(n2)N(c2ccccc2)C(=O)N(c2ccc(OC)cc2)C3)cc1` [Example 20, 3-(4-Methoxyphenyl)-7-[(4-methoxyphenyl)amino]-1-phenyl-1,3,4-trihydropyrimidino[4,5-d]pyrimidin-2-one] gave an IC50 (EGFR) of 180 nM, an IC50 ([1]; Homo sapiens, HUVEC, 24 h) of 350 nM and an IC50 [2] of 96 nM. For the same compound, the IC50 (KDR) was 24 nM, the IC50 (PDGFR) was 82 nM and the IC50 (FGFR) was 91 nM.
